Results on one compound are retold here after the NIST ThermoML archive (doi:10.1016/j.tca.2015.07.010).

Numbers after ± are expanded uncertainties.

As for `O=NN1CN(N=O)CN(N=O)C1` [1,3,5-trinitroso-1,3,5-triazacyclohexane], the Triple point temperature runs as follows: (Crystal 1) 380.15 ± 2 K; (Crystal 2) 369.25 ± 2 K.
